Where two headings read alike, the source gives them in different places. Values belong to the compound of their own block, whether it stands above or below them. Peptide text beside a SMILES is read from it. * marks the point of attachment. Biotin = O=C1N[C@H]2[C@H](CS[C@H]2CCCCC(=O)*)N1
Experiments:
Assay in all cases: Apparent affinity (Kd) by titration of PL peptide in the G assay
Format in all cases: binding
[1] = biological target: T1, PDZ-domain polypeptide (GST/PDZ fusion protein) (Homo sapiens, UniProt Q02410); conditions: PDZ Mint 1, PDZ Domain 1, 2
T1 construct: made in house; host or cells: E. coli (DH5alpha, BL21 or JM109)
T1 sequence (Q02410 1-837): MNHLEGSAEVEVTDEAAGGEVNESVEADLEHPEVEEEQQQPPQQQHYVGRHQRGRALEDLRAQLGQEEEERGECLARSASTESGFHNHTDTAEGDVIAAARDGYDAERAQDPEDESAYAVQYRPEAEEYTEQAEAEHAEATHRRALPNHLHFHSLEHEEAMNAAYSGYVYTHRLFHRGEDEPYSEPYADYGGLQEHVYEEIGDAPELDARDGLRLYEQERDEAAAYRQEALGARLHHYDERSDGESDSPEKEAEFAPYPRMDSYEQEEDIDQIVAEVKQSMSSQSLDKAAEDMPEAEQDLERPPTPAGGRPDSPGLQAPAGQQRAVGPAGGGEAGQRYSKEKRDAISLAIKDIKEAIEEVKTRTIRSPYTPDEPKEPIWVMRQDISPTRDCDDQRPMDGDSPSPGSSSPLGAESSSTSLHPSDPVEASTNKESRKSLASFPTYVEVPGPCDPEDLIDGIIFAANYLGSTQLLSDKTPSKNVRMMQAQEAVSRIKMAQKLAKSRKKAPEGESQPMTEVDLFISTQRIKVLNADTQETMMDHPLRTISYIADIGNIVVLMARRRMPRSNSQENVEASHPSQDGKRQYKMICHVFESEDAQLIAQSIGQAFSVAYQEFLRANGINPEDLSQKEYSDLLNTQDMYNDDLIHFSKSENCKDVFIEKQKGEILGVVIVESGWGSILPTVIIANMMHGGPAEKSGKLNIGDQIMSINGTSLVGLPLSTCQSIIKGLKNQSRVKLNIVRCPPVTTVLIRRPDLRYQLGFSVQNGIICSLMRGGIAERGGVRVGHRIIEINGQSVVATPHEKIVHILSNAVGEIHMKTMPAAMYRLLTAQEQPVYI
Procedure, shortened: (§1)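 A fixed concentration of GST/PDZ fusion protein, 5 ug/ml by default, was mixed in solution with increasing labeled PL peptide (e.g. 0.1 uM-1 mM). Reaction times ranged from 10 minutes to 2 days at 4-37° C. Complexes were separated from free peptide and detected via the label as in the G assay, apparent affinity coming from the saturating concentration.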

[2] = biological target: T2, PDZ-domain polypeptide (GST/PDZ fusion protein) (Homo sapiens, UniProt O75970)
T2 construct: made in house; host or cells: E. coli (DH5alpha, BL21 or JM109)
T2 sequence (O75970 whole entry, the tested form may be a part): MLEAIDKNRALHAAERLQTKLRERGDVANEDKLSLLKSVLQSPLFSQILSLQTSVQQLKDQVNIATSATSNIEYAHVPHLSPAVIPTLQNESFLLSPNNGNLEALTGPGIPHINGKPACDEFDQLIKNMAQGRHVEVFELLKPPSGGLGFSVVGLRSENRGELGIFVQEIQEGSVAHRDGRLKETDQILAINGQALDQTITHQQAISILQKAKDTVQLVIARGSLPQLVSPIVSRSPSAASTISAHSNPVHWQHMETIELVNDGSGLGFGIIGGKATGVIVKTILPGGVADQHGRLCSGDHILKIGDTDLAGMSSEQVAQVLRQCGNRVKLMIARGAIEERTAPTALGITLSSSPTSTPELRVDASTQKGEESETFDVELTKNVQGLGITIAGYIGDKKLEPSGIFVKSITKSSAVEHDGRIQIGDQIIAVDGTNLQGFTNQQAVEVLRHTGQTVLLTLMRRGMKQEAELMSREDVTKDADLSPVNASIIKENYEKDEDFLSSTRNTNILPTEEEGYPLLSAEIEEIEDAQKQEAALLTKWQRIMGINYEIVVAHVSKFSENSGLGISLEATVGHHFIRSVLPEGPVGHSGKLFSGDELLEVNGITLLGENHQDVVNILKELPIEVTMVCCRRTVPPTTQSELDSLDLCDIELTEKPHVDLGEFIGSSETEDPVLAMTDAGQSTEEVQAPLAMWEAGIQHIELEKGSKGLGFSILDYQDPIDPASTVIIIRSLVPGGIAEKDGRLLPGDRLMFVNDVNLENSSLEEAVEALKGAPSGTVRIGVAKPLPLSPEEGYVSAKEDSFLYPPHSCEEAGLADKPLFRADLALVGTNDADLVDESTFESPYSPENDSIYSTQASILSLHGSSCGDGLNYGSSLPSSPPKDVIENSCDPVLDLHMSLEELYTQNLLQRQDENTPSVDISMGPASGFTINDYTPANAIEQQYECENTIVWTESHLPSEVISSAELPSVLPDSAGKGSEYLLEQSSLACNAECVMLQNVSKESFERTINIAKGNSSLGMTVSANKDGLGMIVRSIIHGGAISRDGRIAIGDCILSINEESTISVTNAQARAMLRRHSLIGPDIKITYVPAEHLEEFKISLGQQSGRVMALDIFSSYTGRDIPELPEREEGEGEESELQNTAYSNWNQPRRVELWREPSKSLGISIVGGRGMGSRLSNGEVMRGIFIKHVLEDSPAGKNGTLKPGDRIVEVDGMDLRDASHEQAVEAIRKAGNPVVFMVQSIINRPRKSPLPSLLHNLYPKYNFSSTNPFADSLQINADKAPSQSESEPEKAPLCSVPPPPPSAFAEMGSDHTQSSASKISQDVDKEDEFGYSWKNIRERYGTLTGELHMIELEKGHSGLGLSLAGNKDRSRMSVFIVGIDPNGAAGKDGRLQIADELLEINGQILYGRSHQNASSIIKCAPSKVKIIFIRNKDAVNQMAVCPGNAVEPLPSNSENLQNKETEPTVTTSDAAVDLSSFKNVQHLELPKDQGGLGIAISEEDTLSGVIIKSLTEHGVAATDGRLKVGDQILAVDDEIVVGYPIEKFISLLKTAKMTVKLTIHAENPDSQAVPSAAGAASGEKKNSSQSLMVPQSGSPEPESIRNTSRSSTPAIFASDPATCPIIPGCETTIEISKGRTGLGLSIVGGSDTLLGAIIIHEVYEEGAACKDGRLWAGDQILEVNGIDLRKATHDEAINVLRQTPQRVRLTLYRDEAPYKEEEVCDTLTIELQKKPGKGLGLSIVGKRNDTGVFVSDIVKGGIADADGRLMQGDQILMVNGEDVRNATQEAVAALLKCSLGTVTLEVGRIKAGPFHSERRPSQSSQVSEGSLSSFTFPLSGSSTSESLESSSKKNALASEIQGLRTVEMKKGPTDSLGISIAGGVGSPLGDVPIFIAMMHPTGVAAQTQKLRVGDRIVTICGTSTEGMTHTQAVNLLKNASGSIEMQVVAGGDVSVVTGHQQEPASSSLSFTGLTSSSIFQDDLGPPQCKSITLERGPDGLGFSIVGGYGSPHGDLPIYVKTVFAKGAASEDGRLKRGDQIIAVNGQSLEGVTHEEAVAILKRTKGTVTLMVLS
Procedure, shortened: as §1

[3] = biological target: T3, PDZ-domain polypeptide (GST/PDZ fusion protein) (Homo sapiens, UniProt Q6P0Q8)
T3 construct: made in house; host or cells: E. coli (DH5alpha, BL21 or JM109)
T3 sequence (Q6P0Q8 whole entry, the tested form may be a part): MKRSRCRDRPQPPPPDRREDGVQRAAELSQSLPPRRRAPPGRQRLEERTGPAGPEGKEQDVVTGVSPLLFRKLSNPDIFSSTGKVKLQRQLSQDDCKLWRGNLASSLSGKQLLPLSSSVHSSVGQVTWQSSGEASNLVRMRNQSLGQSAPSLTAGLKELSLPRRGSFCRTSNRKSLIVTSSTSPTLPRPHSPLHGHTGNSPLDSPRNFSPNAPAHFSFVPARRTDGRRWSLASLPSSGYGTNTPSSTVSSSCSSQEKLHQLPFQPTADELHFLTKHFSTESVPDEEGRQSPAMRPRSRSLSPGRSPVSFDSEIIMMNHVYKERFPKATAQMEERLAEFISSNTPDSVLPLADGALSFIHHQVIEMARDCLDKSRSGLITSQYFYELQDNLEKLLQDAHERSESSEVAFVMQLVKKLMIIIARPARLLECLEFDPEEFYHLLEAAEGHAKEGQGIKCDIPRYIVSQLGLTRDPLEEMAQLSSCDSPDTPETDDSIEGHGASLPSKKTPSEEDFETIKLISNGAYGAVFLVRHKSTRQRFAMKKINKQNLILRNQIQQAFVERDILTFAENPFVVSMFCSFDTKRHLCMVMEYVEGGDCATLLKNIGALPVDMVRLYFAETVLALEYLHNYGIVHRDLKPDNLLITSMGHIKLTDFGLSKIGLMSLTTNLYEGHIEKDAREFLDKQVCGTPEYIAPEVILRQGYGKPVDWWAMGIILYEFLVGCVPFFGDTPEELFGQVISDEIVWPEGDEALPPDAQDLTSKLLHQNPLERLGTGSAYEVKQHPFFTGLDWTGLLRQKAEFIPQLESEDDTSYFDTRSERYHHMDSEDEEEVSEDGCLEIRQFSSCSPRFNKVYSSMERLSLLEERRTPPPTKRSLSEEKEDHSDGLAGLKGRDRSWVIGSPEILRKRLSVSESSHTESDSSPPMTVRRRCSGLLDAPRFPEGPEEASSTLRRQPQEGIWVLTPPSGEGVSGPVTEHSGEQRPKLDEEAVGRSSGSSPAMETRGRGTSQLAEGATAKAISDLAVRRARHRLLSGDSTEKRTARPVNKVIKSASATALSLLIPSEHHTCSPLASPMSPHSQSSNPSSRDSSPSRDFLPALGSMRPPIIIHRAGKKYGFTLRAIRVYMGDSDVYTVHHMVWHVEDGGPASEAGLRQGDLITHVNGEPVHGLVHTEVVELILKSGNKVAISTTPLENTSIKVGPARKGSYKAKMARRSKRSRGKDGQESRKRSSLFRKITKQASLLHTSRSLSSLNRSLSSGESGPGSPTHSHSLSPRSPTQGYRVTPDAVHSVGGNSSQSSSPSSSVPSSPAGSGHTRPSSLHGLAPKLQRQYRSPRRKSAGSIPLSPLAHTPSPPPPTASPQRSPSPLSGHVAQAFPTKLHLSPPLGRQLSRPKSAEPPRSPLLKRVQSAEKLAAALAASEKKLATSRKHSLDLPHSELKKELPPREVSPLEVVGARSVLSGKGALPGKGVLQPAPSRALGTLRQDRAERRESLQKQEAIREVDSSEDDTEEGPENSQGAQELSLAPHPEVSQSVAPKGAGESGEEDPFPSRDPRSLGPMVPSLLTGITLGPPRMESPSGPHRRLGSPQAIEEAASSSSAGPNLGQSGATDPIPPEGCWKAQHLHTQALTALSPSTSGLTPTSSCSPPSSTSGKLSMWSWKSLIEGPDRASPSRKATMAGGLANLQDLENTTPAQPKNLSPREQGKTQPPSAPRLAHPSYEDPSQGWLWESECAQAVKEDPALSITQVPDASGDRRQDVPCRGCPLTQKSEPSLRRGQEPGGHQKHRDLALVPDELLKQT
Procedure, shortened: as §1

[4] = biological target: T4, PDZ-domain polypeptide (GST/PDZ fusion protein) (Homo sapiens, UniProt Q86UL8); conditions: PDZ atrophin-1 interacting Protein
T4 construct: made in house; host or cells: E. coli (DH5alpha, BL21 or JM109)
Procedure, shortened: as §1

[5] = PDZ KIAA0807(S), PDZ Domain 1, read-out: Peptide Optimal Conc (Kd by titration of the PL peptide)

Kd ([1]; read-out: Peptide Optimal Conc (non-zero value: Kd by titration of the PL peptide)): 800 nM
SMILES: CC[C@H](C)[C@H](NC(=O)CNC(=O)[C@H](CO)NC(=O)[C@H](Cc1ccccc1)NC(=O)[C@@H](NC(=O)[C@H](CS)NC(=O)CNC(=O)CNC(=O)[C@H](C)NC(=O)[C@@H]1CCCN1C(=O)[C@@H](NC(=O)[C@@H]1CCCN1C(=O)CCCC[C@@H]1SC[C@@H]2NC(=O)N[C@@H]21)[C@@H](C)CC)[C@@H](C)O)C(=O)N[C@@H](Cc1ccccc1)C(=O)N1CCC[C@H]1C(=O)N[C@H](C(=O)N[C@@H](CC(C)C)C(=O)N[C@H](C(=O)N[C@@H](CO)C(=O)N1CCC[C@H]1C(=O)N[C@@H](CC(C)C)C(=O)O)[C@@H](C)O)[C@@H](C)O [KIA 1481] (Biotin-PIPAGGCTFSGIFPTLTSPL-OH; C-terminus assumed)

SMILES: CC[C@H](C)[C@H](NC(=O)[C@H](CC(=O)O)NC(=O)[C@H](CCC(=O)O)NC(=O)[C@H](CCCNC(=N)N)NC(=O)[C@@H](NC(=O)CCCC[C@@H]1SC[C@@H]2NC(=O)N[C@@H]21)[C@@H](C)O)C(=O)N[C@@H](Cc1ccc(O)cc1)C(=O)N[C@H](C(=O)N[C@@H](CC(N)=O)C(=O)N[C@@H](Cc1ccc(O)cc1)C(=O)N1CCC[C@H]1C(=O)N[C@H](C(=O)N[C@@H](Cc1ccccc1)C(=O)N[C@@H](CO)C(=O)N[C@@H](CCCNC(=N)N)C(=O)N[C@@H](CCCNC(=N)N)C(=O)N1CCC[C@H]1C(=O)N[C@@H](CCCCN)C(=O)N[C@H](C(=O)N[C@@H](CCCNC(=N)N)C(=O)N[C@H](C(=O)O)C(C)C)[C@@H](C)O)[C@@H](C)O)C(C)C [DNAM-1] (Biotin-TREDIYVNYPTFSRRPKTRV-OH; C-terminus assumed)
Kd ([2]; Peptide Optimal Conc (Kd by titration of the PL peptide), PDZ MUPP-1, PDZ Domain 10): 2500 nM
Kd ([3]; Peptide Optimal Conc (Kd by titration of the PL peptide), PDZ KIAA807): 2000 nM
Kd ([3]; Peptide Optimal Conc (Kd by titration of the PL peptide), PDZ KIAA0807(S), PDZ Domain 1): 2000 nM
Kd ([4]; Peptide Optimal Conc (Kd by titration of the PL peptide), PDZ Domain 1): 3000 nM

SMILES: CSCC[C@H](NC(=O)[C@H](C)NC(=O)[C@H](CCCNC(=N)N)NC(=O)CNC(=O)[C@@H](NC(=O)[C@H](Cc1c[nH]c2ccccc12)NC(=O)[C@H](CCCNC(=N)N)NC(=O)CNC(=O)CCCC[C@@H]1SC[C@@H]2NC(=O)N[C@@H]21)[C@@H](C)O)C(=O)N[C@@H](CO)C(=O)N[C@@H](C)C(=O)N[C@@H](Cc1c[nH]c2ccccc12)C(=O)N[C@@H](CCCCN)C(=O)N1CCC[C@H]1C(=O)N[C@H](C(=O)N[C@@H](CCCNC(=N)N)C(=O)N[C@@H](CCCNC(=N)N)C(=O)N[C@@H](CCC(=O)O)C(=O)N[C@H](C(=O)N[C@@H](CCC(=O)O)C(=O)N[C@H](C(=O)O)C(C)C)[C@@H](C)O)[C@@H](C)O [HPV E6 #35 (modified)] (Biotin-GRWTGRAMSAWKPTRRETEV-OH; C-terminus assumed)
Kd ([3]; PDZ KIAA0807(S), PDZ Domain 1, Protein Optimal Conc 0.5, read-out: Peptide Optimal Conc (Kd by titration of the PL peptide)): 100 nM
Kd ([4]; PDZ Domain 2, read-out: Peptide Optimal Conc (Kd by titration of the PL peptide)): 800 nM

SMILES: CC[C@H](C)[C@H](NC(=O)[C@H](CCC(N)=O)NC(=O)[C@@H](NC(=O)[C@H](Cc1c[nH]cn1)NC(=O)[C@H](CCC(N)=O)NC(=O)[C@H](CC(=O)O)NC(=O)[C@H](CCC(=O)O)NC(=O)[C@H](CC(=O)O)NC(=O)[C@H](Cc1ccccc1)NC(=O)[C@@H]1CCCN1C(=O)[C@H](CCC(=O)O)NC(=O)[C@H](CC(N)=O)NC(=O)[C@H](CCC(=O)O)NC(=O)[C@@H]1CCCN1C(=O)[C@H](CC(=O)O)NC(=O)[C@H](CO)NC(=O)[C@H](CC(=O)O)NC(=O)CCCC[C@@H]1SC[C@@H]2NC(=O)N[C@@H]21)[C@@H](C)O)C(=O)N[C@H](C(=O)N[C@@H](CCCCN)C(=O)N[C@H](C(=O)O)C(C)C)[C@@H](C)O [PTEN]
Kd [3, 5]: 300 nM

Kd ([4]; PDZ Domain 1, read-out: Peptide Optimal Conc (Kd by titration of the PL peptide)): 250 nM
SMILES: CC(C)C[C@H](NC(=O)CNC(=O)[C@@H](NC(=O)[C@H](CO)NC(=O)[C@H](CC(N)=O)NC(=O)[C@H](Cc1ccccc1)NC(=O)CNC(=O)[C@H](C)NC(=O)[C@H](C)NC(=O)[C@H](Cc1ccccc1)NC(=O)[C@@H](NC(=O)CCCC[C@@H]1SC[C@@H]2NC(=O)N[C@@H]21)[C@@H](C)O)[C@@H](C)O)C(=O)N1CCC[C@H]1C(=O)N[C@@H](Cc1c[nH]cn1)C(=O)N[C@@H](CO)C(=O)N[C@H](C(=O)N[C@H](C(=O)N[C@@H](CCCNC(=N)N)C(=O)N[C@H](C(=O)O)C(C)C)[C@@H](C)O)[C@@H](C)O [Neuroligin] (Biotin-TFAAGFNSTGLPHSTTRV-OH; C-terminus assumed)

Kd [3, 5]: 400 nM
Kd ([3]; PDZ KIAA807, read-out: Peptide Optimal Conc (Kd by titration of the PL peptide)): 400 nM
SMILES: CC(C)C[C@H](NC(=O)[C@H](Cc1c[nH]c2ccccc12)NC(=O)[C@H](Cc1c[nH]cn1)NC(=O)[C@H](CCCNC(=N)N)NC(=O)[C@H](CC(C)C)NC(=O)[C@@H](NC(=O)[C@H](Cc1ccccc1)NC(=O)[C@H](CCC(N)=O)NC(=O)[C@H](CCCNC(=N)N)NC(=O)[C@@H](NC(=O)[C@H](CCC(=O)O)NC(=O)CNC(=O)[C@H](CCCNC(=N)N)NC(=O)[C@H](CC(=O)O)NC(=O)[C@@H](NC(=O)[C@H](CC(C)C)NC(=O)[C@H](CCC(=O)O)NC(=O)[C@H](CCCNC(=N)N)NC(=O)CCCC[C@@H]1SC[C@@H]2NC(=O)N[C@@H]21)C(C)C)C(C)C)[C@@H](C)O)C(=O)N[C@@H](CCCCN)C(=O)N[C@H](C(=O)O)C(C)C [Dopamine transporter (Na+-dependent)] (Biotin-RELVDRGEVRQFTLRHWLKV-OH; C-terminus assumed)

SMILES: CC[C@H](C)[C@H](NC(=O)[C@H](C)NC(=O)[C@H](CC(C)C)NC(=O)[C@H](Cc1c[nH]c2ccccc12)NC(=O)[C@H](Cc1c[nH]cn1)NC(=O)[C@H](CCC(N)=O)NC(=O)[C@H](CC(C)C)NC(=O)[C@H](CCC(N)=O)NC(=O)[C@H](Cc1ccccc1)NC(=O)[C@H](CCC(N)=O)NC(=O)[C@H](CCCNC(=N)N)NC(=O)[C@@H](NC(=O)[C@H](CC(=O)O)NC(=O)[C@H](CCCNC(=N)N)NC(=O)[C@H](CCC(N)=O)NC(=O)[C@H](C)NC(=O)[C@@H](NC(=O)[C@H](CC(C)C)NC(=O)[C@H](Cc1c[nH]cn1)NC(=O)[C@H](Cc1c[nH]cn1)NC(=O)CCCC[C@@H]1SC[C@@H]2NC(=O)N[C@@H]21)C(C)C)[C@@H](C)CC)C(=O)O [noradrenaline transporter] (Biotin-HHLVAQRDIRQFQLQHWLAI-OH; C-terminus assumed)
Kd ([2]; Peptide Optimal Conc (Kd by titration of the PL peptide), PDZ MUPP-1, PDZ Domain 3): 400 nM
Kd ([2]; Peptide Optimal Conc (Kd by titration of the PL peptide), PDZ MUPP-1, PDZ Domain 7): 800 nM
Kd ([2]; Peptide Optimal Conc (Kd by titration of the PL peptide), PDZ MUPP-1, PDZ Domain 9): 700 nM
Kd ([1]; Peptide Optimal Conc (Kd by titration of the PL peptide)): 500 nM

SMILES: CC[C@H](C)[C@H](NC(=O)[C@H](CCCCN)NC(=O)[C@@H](NC(=O)[C@H](CO)NC(=O)[C@@H]1CCCN1C(=O)[C@H](Cc1ccccc1)NC(=O)[C@@H](NC(=O)[C@@H](NC(=O)[C@H](CCCNC(=N)N)NC(=O)[C@H](CCC(=O)O)NC(=O)[C@H](CC(C)C)NC(=O)[C@H](CC(C)C)NC(=O)[C@H](CC(C)C)NC(=O)[C@@H](NC(=O)CNC(=O)[C@@H](NC(=O)CCCC[C@@H]1SC[C@@H]2NC(=O)N[C@@H]21)C(C)C)[C@@H](C)O)C(C)C)[C@@H](C)CC)C(C)C)C(=O)N[C@@H](C)C(=O)N[C@H](C(=O)N[C@@H](CC(C)C)C(=O)N[C@H](C(=O)O)C(C)C)[C@@H](C)O [Adenovirus E4 Type9]
Kd ([2]; PDZ MUPP-1, PDZ Domain 11, Protein Optimal Conc 5, read-out: Peptide Optimal Conc (Kd by titration of the PL peptide)): 100 nM
Kd ([3]; PDZ KIAA0807(S), PDZ Domain 1, Protein Optimal Conc 5, read-out: Peptide Optimal Conc (Kd by titration of the PL peptide)): 200 nM
Kd ([4]; PDZ Domain 1, Protein Optimal Conc 0.5, read-out: Peptide Optimal Conc (Kd by titration of the PL peptide)): 20 nM
Kd ([4]; PDZ Domain 3, Protein Optimal Conc 5, read-out: Peptide Optimal Conc (Kd by titration of the PL peptide)): 100 nM
